Reference: patent US20260217683A1, “PYRIDAZINONE HETEROCYCLIC COMPOUND MYOSIN II INHIBITOR AND USE THEREOF” (Xizang Haisco Pharmaceutical Co., Ltd., priority 2023, published 2026)

Assays:
[1] = molecular target: T1, hERG potassium ion channel (Homo sapiens, UniProt Q12809); assay: Effect on hERG potassium ion channel (manual patch-clamp, CHO cells); type: cell-based; settings: CHO cells stably expressing hERG, whole cell patch-clamp; read-out: IC50 of the inhibitory effect on hERG potassium channel current
T1 construct: expressed in transfected cells
Excerpt: 1. Experimental platform: electrophysiological manual patch-clamp system
2. Cell line: Chinese hamster ovary (CH—O) cell lines stably expressing hERG potassium ion channel
3. Experimental method: in CHO (Chinese Hamster Ovary) cells stably expressing hERG potassium channel, whole cell patch-clamp technique was used to record hERG potassium channel current at room temperature. The glass microelectrode was made of a glass electrode blank (BF150-86-10, Sutter) by a puller. The tip resistance after filling the liquid in the electrode was about 2-5 MQ. The glass microelectrode can be connected to the patch-clamp amplifier by inserting the glass microelectrode into an amplifier probe. The clamping voltage and data recording were controlled and recorded by the pClamp 10 software through a computer. The sampling frequency was 10 kHz, and the filtering frequency was 2 kHz. After the whole cell records were obtained, the cells were clamped at −80 mV, and the step voltage that induced the hERG potassium current (IhERG) was depolarized from −80 mV to +20 mV for 2 s, then repolarized to −50 mV, and returned to −80 mV after 1 s. This voltage stimulation was given every 10 s, and the administration process was started after the hERG potassium current was confirmed to be stable (at least 1 minute). The compound was administered for at least 1 minute at each test concentration, and at least 2 cells (n≥2) were tested at each concentration.
4. Data processing: Data analysis processing was carried out by using pClamp 10, GraphPad Prism 5 and Excel software. The inhibition degree of hERG potassium current (peak value of hERG tail current induced at −50 mV) at different compound concentrations was calculated by the following formula:
[formula] • where Inhibition % represents the percentage of inhibition of hERG potassium current by the compound, and I and Io represent the amplitude of hERG potassium current after and before the administration, respectively.
Compound IC50 was calculated using GraphPad Prism 5 software by fitting according to the following equation: […]
Among the equation, X represents the Log value of the tested concentration of the test sample, Y represents the inhibition percentage at the corresponding concentration, and Bottom and Top represent the minimum and maximum inhibition percentage, respectively.

[2] = Pharmacokinetic experiment in mouse muscle tissue (tibialis anterior / plasma); type: in vivo, C57 mice; settings: male, C57, tibialis anterior muscle / plasma, oral, intragastric 10 mg/kg, read-out: Ratio = Tibialis anterior Conc./Plasma Conc.
Procedure: 1. Experimental animals: Male C57 mice, 22-25 g, 6 mice/compound. Purchased from Chengdu Ddossy Experimental Animals Co., Ltd.
(§1) 2. Experimental design: On the day of the experiment, C57 mice were randomly grouped according to their body weight. The animals were fasted with water available for 12 to 14 h one day before the administration and were fed 4 h after the administration. Administration was performed as per Table 10.1.

[3] = Pharmacokinetic experiment of beagle dogs; type: in vivo; settings: male, dog, plasma, oral, beagles, intragastric 3 mg/kg vs intravenous 1 mg/kg, read-out: bioavailability (F)
Procedure: 1. Experimental animals: male beagle dogs, about 8-11 kg, 6 beagle dogs/compound, purchased from Beijing Marshall Biotechnology Co., Ltd.
as §1, with “method:” for “design:”, “test, (6×number of test compounds (n)) beagles” for “experiment, C57 mice”, “divided into groups” for “grouped”, “to” for “to their”, “6.” for “10.1.”
• Before and after the administration, 1 mL of blood was taken from the jugular veins or limb veins, and placed in an EDTAK2 centrifuge tube. Centrifugation was performed at 5000 rpm at 4° C. for 10 min, and plasma was collected. The blood collection time points for the intravenous group and intragastric administration group were: 0 min, 5 min, 15 min, 30 min, 1 h, 2 h, 4 h, 6 h, 8 h, 10 h, 12 h, 24 h, 48 h, 72 h, and 96 h. Before analysis and detection, all samples were stored at −80° C. The samples were analyzed quantitatively by LC-MS/MS.

B10-Dmd-KO (Mdx) mice = assay: PK/PD detection of mouse model with Dmd (Mdx) gene mutation, plasma CK; type: in vivo; settings: oral
Excerpt: Experimental objective: Bl0-Dmd-KO (Mdx) mice are DMD function-deficient mice caused by frameshift mutations in the Dmd gene. […] This study has investigated the effects on CK and TNNI2 in the plasma of Mdx mice upon administration of compounds.
Experimental animal: B10-Dmd-KO (C57BL/10ScSnJGpt-Dmdem3Cd4/Gpt), male, 5-7 weeks old, weight 28-30 g, supplier. Gempharmatech Co., Ltd.;
• 1) Running training (D-5): Mdx mice underwent running training in batches. The training parameters were set as three time periods, i.e., the initial speed of 4 m/min for 2 min, then 8 m/min for 8 min, and finally 12 m/min for 30 min, a total of 40 min; • 2) Gripping strength test (D-2): each round was measured three times, and three rounds were performed; • 3) Grouping (DO): the animals were anesthetized by inhalation of isoflurane (concentration: 5%, gas flow rate: 1 L/min), and then a capillary tube was used to collect blood (about 150 μL) via orbital venous sinus into a 0.6 mL centrifuge tube containing EDTA anticoagulant, the plasma wad separated, and the CK value was detected, which was used as the basic value for grouping; • 4) Administration, grasping, and blood collection (D1): The compounds were dissolved in the vehicle 5% DMA+5% HS-15+90% Saline, then orally administered to the mice, and then the grip strength test was conducted (three tests per round for three rounds). […] A capillary tube was used to collect blood (>300 μL) via orbital venous sinus into a 0.6 mL centrifuge tube containing EDTA anticoagulant, and then the animals were euthanized to collect the tibialis anterior muscle (left leg), soleus muscle (both legs) and cardiac muscle, which were weighed and recorded, placed in a homogenization tube and quickly frozen in liquid nitrogen, then stored at −80° C.
Sample processing: After the whole blood anticoagulated with EDTA was centrifuged at 3000 rpm and 4° C. for 10 min, the […] was collected and subpackaged. The separated […] was subjected to a biochemical analyzer (Fully automatic biochemical analyzer Roche C311) to detect the CK value and TNN12 value (Mouse TNNI2 Elisa Kit, ABBEXA, E2207370Y); The […] concentration of the compound and the drug concentration in tibialis anterior muscle, soleus muscle and cardiac muscle were measured by LC/MS instrument.

[4] = 10 mpk, QD administration for 7 days

T1 sequence (Q12809 whole entry): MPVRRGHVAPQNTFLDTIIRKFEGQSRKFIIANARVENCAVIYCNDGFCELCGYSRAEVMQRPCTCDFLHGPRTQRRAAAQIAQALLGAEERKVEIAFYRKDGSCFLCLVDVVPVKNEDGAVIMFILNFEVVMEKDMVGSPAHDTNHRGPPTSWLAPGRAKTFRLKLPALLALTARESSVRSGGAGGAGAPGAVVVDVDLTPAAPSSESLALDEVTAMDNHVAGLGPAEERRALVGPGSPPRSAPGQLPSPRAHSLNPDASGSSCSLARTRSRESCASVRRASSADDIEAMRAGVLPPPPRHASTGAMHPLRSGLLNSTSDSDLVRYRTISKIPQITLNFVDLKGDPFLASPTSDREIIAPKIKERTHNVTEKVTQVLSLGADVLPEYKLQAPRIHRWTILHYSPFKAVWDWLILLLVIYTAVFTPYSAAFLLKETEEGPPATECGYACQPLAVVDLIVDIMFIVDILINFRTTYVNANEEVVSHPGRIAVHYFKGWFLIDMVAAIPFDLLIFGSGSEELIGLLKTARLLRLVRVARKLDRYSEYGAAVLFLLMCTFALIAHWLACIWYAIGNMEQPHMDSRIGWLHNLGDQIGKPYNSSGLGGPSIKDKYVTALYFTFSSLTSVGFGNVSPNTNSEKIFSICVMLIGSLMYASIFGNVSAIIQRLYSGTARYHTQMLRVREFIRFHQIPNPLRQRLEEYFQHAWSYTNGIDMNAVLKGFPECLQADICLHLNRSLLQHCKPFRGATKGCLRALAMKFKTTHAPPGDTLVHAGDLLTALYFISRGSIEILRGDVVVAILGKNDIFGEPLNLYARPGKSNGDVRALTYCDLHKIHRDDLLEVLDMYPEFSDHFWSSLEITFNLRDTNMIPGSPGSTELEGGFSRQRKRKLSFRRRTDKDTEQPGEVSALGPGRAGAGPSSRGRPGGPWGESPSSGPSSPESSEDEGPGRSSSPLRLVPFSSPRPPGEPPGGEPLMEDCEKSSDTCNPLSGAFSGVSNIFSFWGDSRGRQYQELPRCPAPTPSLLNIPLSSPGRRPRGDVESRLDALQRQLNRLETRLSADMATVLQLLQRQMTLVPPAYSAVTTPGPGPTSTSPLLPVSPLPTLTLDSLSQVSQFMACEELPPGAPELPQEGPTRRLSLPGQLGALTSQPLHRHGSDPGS

Structure (SMILES) | IC50 [1] [µM] | Kp at 6 h [2] | Kp at 24 h [2] | bioavailability [3] [%] | Inhibition rate of CK values (sampled 24 h after (last) dose) (B10-Dmd-KO (Mdx) mice; [4]) [%] | Inhibition rate of CK values (sampled 24 h after (last) dose) (B10-Dmd-KO (Mdx) mice; 10 mpk single administration) [%]
N#CC1(COc2ncc(-c3ccc(=O)n(Cc4ccc5c(c4)C(=O)CC5)n3)cn2)CC1 [Compound 158] | > 40 |  |  |  |  | 
O=C1CCc2ccc(Cn3nc(-c4cnc(O[C@@H]5CCOC5)nc4)ccc3=O)cc21 [Compound 149] |  | 113 | 171 |  |  | 
O=C1CCc2c(F)cc(Cn3nc(-c4cnc(O[C@H]5CCOC5)nc4)ccc3=O)cc21 [Compound 165] | > 40 |  |  |  |  | 
O=C1CCc2ccc(Cn3nc(-c4cnc(OCC(F)F)nc4)ccc3=O)cc21 [Compound 131] |  | 136 | 158 | 112 | 94.1 | 
O=C1CCc2ccc(Cn3nc(-c4cnc(OC5COCC5(F)F)nc4)ccc3=O)cc21 (stereo not shown) [Compound 164] | > 40 |  |  |  |  | 
O=C1CCc2ccc(Cn3nc(-c4cnc(OC5CC(F)(F)C5)nc4)ccc3=O)cc21 [Compound 141] |  | 89.9 | 116 |  |  | 
O=C1CCc2ccc(Cn3nc(-c4cnc(OCC(F)(F)F)nc4)ccc3=O)cc21 [Compound 88] |  | 63.5 | 81.1 |  | 91.6 | 
O=c1ccc(-c2cnc(OCC(F)(F)F)nc2)nn1Cc1ccc2c(c1)CCC2 [Compound 57] | > 40 |  |  |  |  | 108.2
O=C1CCc2ccc(Cn3nc(-c4cnc(O[C@H]5CCOC5)nc4)ccc3=O)cc21 [Compound 150] | > 40 | 82.2 | 140 |  |  | 
